For data set [1], the target named is T1, rat nNOS (Rattus norvegicus, UniProt P29476). Description: biochemical.
Data set [2] has as its target T1, rat nNOS. Particulars: ratio of respective Ki values (eNOS vs rnNOS).
For the next data set, the target named is T2, serotonin 5-HT1A (Homo sapiens, UniProt P08908).
T2 sequence (P08908 1-422): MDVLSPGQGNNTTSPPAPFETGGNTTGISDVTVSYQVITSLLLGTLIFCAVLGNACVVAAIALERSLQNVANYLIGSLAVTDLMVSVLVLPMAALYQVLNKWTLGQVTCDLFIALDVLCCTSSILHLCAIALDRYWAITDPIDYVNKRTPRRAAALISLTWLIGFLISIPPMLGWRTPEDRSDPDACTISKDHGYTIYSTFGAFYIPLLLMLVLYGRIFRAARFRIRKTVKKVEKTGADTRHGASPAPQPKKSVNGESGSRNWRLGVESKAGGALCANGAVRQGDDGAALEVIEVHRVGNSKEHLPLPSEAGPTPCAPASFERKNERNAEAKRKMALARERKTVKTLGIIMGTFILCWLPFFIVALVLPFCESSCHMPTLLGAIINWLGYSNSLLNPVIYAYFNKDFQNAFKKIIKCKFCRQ
The experiment in a line: NIMH PDSP CNS receptor radioligand binding.

The next data set deals with dopamine D3 receptor (Homo sapiens, UniProt P35462). Description: NIMH PDSP CNS receptor radioligand binding.
Chain of dopamine D3 receptor (P35462 whole entry, species assumed): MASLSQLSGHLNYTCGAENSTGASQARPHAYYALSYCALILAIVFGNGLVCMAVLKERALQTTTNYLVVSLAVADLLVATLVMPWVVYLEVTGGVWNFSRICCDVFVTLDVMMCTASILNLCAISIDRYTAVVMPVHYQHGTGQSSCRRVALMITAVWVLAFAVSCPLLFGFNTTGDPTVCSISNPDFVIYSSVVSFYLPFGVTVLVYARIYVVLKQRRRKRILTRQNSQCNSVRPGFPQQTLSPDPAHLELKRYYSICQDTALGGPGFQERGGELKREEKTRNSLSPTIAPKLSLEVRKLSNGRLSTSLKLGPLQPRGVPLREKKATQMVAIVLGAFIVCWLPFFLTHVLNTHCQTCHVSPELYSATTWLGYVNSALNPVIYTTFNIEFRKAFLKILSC
The target of another data set is CYP2D6 (Homo sapiens, UniProt P10635). The experiment in a line: CYP inhibition assay in human liver microsomes. In kind it is in vitro ADME. The following applies: 10 μM. (In general: Microsomes from liver hold many membrane-bound enzymes, among them those of drug oxidation.)
Chain of CYP2D6 (P10635 whole entry): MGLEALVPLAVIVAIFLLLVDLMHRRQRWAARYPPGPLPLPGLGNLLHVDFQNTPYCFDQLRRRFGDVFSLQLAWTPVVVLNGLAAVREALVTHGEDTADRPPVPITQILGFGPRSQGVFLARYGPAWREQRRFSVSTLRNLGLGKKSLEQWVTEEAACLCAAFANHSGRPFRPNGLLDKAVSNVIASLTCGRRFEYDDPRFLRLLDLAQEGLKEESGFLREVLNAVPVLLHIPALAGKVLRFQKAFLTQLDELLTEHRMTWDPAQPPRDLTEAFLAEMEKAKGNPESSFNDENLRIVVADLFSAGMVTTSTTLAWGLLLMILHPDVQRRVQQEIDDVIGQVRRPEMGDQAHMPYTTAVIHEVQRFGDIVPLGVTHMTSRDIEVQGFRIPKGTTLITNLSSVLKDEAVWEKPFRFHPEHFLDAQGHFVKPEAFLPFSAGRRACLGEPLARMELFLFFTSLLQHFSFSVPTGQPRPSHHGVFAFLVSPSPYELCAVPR
The target in another data set is CYP2C19 (Homo sapiens, UniProt P33261). Description: CYP inhibition assay in human liver microsomes. The class given is in vitro ADME. The following applies: 10 μM.
Chain of CYP2C19 (P33261 whole entry): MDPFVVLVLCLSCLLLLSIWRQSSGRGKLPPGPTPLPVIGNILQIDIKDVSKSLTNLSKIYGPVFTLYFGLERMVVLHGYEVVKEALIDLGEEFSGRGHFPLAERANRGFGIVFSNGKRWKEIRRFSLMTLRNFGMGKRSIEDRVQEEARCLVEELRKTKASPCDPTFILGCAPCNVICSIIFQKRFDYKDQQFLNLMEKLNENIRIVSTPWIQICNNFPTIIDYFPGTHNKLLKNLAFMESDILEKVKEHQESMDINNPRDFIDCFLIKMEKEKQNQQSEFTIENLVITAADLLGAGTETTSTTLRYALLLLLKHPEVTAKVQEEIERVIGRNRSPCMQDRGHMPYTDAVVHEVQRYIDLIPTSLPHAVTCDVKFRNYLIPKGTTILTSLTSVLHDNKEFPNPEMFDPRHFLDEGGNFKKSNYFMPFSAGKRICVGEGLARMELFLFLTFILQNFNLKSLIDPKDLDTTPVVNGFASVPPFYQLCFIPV
The target of a further data set is serotonin 5-HT2A (Homo sapiens, UniProt P28223). Description: NIMH PDSP CNS receptor radioligand binding.
Chain of serotonin 5-HT2A (P28223 whole entry): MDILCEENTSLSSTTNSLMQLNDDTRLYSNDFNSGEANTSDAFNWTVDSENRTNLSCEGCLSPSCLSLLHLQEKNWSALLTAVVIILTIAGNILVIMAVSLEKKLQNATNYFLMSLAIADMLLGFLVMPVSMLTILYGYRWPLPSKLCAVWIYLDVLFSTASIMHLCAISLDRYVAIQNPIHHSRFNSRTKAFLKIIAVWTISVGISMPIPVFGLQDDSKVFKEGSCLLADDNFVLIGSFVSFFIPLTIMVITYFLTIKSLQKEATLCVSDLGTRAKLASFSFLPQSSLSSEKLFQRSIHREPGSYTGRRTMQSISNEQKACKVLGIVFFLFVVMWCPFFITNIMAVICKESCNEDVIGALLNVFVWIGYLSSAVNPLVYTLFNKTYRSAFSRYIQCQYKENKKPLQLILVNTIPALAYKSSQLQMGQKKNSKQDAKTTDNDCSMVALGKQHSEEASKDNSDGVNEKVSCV
A further data set addresses CYP3A4 (Homo sapiens, UniProt P08684). The experiment in a line: CYP inhibition assay in human liver microsomes. The class given is in vitro ADME. Particulars: 10 μM.
For data set [3] the following is noted: cited from earlier work.

Here are results for four compounds from article PMC4329833 (Journal of Medicinal Chemistry, 2014).

SMILES strings stand for the structures.

T1 sequence (P29476 whole entry): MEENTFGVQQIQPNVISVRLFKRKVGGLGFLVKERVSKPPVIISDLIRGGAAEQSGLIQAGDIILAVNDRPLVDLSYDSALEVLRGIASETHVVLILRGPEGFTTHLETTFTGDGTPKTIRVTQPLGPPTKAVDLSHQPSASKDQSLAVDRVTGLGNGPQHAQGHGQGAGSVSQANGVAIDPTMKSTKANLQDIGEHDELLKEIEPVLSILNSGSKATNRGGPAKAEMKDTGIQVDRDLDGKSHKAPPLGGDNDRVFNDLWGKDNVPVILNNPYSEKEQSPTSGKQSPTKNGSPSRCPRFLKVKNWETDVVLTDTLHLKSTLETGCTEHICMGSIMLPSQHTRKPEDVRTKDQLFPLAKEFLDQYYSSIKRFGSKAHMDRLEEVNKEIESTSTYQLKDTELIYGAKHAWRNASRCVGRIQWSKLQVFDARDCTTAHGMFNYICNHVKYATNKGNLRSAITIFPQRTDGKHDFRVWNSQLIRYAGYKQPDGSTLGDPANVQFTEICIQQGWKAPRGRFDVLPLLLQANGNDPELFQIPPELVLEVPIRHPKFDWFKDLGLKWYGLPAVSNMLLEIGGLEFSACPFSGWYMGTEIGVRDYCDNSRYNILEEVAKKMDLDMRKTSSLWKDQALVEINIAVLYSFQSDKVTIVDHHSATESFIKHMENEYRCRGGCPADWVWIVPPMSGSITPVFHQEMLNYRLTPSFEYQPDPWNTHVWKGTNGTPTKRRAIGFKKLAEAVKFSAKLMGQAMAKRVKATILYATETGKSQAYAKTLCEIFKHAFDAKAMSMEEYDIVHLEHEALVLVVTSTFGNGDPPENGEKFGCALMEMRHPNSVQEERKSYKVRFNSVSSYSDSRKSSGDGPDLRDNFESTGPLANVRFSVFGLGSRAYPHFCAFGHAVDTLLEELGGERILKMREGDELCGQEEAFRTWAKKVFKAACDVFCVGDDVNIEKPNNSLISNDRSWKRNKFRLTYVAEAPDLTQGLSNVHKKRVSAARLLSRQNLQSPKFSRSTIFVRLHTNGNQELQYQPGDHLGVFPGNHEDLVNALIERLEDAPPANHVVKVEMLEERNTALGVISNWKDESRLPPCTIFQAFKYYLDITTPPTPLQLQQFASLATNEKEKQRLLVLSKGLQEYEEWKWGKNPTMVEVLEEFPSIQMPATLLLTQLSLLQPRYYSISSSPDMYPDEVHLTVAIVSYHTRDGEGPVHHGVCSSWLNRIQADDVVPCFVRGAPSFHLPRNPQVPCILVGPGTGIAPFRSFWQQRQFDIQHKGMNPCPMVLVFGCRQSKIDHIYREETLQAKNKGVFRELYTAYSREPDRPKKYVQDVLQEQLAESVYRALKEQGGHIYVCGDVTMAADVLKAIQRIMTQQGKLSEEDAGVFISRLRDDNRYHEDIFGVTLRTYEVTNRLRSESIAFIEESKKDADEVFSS
Chain of CYP3A4 (P08684 whole entry): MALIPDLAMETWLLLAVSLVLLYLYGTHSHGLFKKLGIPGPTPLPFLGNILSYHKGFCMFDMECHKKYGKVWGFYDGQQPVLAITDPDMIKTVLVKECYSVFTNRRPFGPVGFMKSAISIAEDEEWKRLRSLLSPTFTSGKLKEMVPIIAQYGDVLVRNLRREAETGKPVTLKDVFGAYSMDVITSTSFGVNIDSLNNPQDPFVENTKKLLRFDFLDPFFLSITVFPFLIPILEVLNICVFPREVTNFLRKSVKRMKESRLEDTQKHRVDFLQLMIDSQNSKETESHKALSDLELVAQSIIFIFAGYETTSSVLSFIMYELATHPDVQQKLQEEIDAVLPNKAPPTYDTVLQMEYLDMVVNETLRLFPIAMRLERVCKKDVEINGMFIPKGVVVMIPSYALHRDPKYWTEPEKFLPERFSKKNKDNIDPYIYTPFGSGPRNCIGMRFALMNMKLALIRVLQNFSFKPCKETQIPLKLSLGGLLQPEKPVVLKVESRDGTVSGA

As to `Fc1cccc(CCN2CCN(c3ccnc(-n4ccnc4)n3)CC2)c1` [Compound 4, 4-[4-(3-Fluorophenethyl)-1-piperazyl]-2-(1H-imidazol-1-yl)pyrimidine], the Ki at rat nNOS [1] was ~5000 nM.
Take `Cl.Fc1cccc(CCNCCNc2ccnc(-n3ccnc3)n2)c1` [Compound 5, N^1-[2-(1H-Imidazol-1-yl)pyrimidin-4-yl]-N^2-(3-fluorophenethyl)ethane-1,2-diamine Trihydrochloride]: at rat nNOS [2], the selectivity n/e was determined as 100.
Take `Cl.Fc1cccc(CCCNCCc2ccnc(-n3ccnc3)n2)c1` [Compound 9, N-2-[2-(1H-Imidazol-1-yl)pyrimidin-4-yl]ethyl-3-(3-fluorophenyl)propan-1-amine Dihydrochloride]: the Ki on serotonin 5-HT1A, at dopamine D3 receptor and at serotonin 5-HT2A was ≥ 500 nM throughout. In addition, the “decrease of CYP2D6 activity” value on CYP2D6 is “more than 70%”. The “decrease of CYP2C19 activity” value at CYP2C19 was “more than 70%”. Besides, at CYP3A4, the “decrease of CYP3A4 activity” value is “more than 70%”.
For `c1c[nH]cn1` [imidazole], in data set [3], the “pKa of conjugate acid” value is recorded as 6.9.

Broadly, the Ki is a measure of affinity in units of concentration, obtained from inhibition or displacement.
